Experimental data from patent US10626095B2, “Cyanotriazole compounds” (OTSUKA PHARMACEUTICAL CO., LTD., priority 2013, dated 2020).

Tested on: NaCT-CHO (CHO cells stably expressing human NaCT)
Test: Assay of the citric acid cycle activation ([1,5-14C]-citric acid, diffusion of [14C]-CO2)
Type: cell-based
Details: 1 hour incubation at 37° C. with [1,5-14C]-citric acid
Excerpt: Assay of the Citric Acid Cycle Activation
(1) Construction of the Human NaCT Expression Vector pME-NaCT
The human NaCT (also called SLC13A5 or NAC2; GenBank accession No. NM_177550) cDNA was inserted into the EcoRI-NotI site of the mammalian expression vector pME18S (GenBank accession No. AB009864) and purified by Qiagen Plasmid Maxi Kit (Qiagen).
(2) Establishment of NaCT Stably Expressed CHO Cells
The pME-NaCT vector and the pcDNA™3.1 vector containing the neomycin resistance gene (Life Technologies) were co-transfected into CHO-K1 cells (ATCC) by Lipofectaimine 2000 reagent (Life Technologies). The next day the cells were subcultured in Nutrient Mixture F-12 Ham (Sigma-Aldrich) with 10% FBS (Biological Industries), and Geneticin (Life Technologies) was added (final concentration 350 μg/mL) in the following day. CHO cell clones stably expressing NaCT were given by neomycin resistant cell screening and limiting dilution method. Established cell lines (named NaCT-CHO) were also maintained in culture medium (Nutrient Mixture F-12 Ham) with 10% FBS and 350 μg/mL Geneticin. For control cells (named pME-CHO) preparation, the naive pME18S were also transfected instead of pME-NaCT into CHO-K1 cells.
(3) Assay of the Citric Acid Cycle Activation
NaCT-CHO and pME-CHO were plated at 20,000 cells/well into white CulturPlate™-96 (PerkinElmer) two days before the assay. Prior to assay incubation, the cultured plates were washed twice with washing buffer, 10 mM HEPES-Tris(pH7.4) containing 140 mM choline chloride, 2 mM KCl, 1 mM CaCl2, 1 mM MgCl2. The compounds to be tested were dissolved and diluted in DMSO (Wako Pure Chemical industries) to 1,000 times of a final concentration, and further diluted to two times as high as the final concentration in assay buffer, 10 mM HEPES-Tris(pH7.4) containing 140 mM NaCl, 2 mM KCl, 1 mM CaCl2, 1 mM MgCl2. The range of final concentrations was properly determined based on the test compounds activity. Each 25 μL compound solution was added to well and subsequently 25 μL radio-labeled substrate solution containing 0.4 mM (0.4 MBq/mL) [1,5-^14C]-citric acid (PerkinElmer) in the assay buffer was added. After 1 hour incubation at 37° C., the reaction mixture was discarded and washed three times with pre-chilled washing buffer and then 0.1 mL MicroScint 20 (PerkinElmer) was added to well. The plate was sealed with TopSeal-A (PerkinElmer) and the radioactivity was measured using a TopCount (PerkinElmer). Non-specific activity (NS cpm) and total radio activity (Total cpm) were determined by counting of pME-CHO plated wells and NaCT-CHO plated wells without compounds, respectively. Diffusion of [^14C]—CO2 was able to be estimated from residual radioactivity (R cpm) by an equation (Total−R)/(Total−NS)×100(%). The difference of Total and R was disappeared in the presence of 0.1 μM antimycin A. EC50 values were calculated by regression analysis using SAS Statistical Analysis System (SAS institute Japan Ltd. Release 9.1).

Compound | EC50 [nM]
N#Cc1[nH]nnc1-c1cc(Cl)cc(CC2CC2)c1 [Example 1, 5-(3-chloro-5-cyclopropylmethyl-phenyl)-3H-[1,2,3]triazole-4-carbonitrile] | 500
N#Cc1[nH]nnc1-c1cc(OCCCC(F)(F)F)cc(C(F)(F)F)c1 [Example 2, 5-[3-(4,4,4-trifluoro-butoxy)-5-trifluoromethyl-phenyl]-3H-[1,2,3]triazole-4-carbonitrile] | 280
N#Cc1[nH]nnc1-c1cccc(COCC2CCCCC2)c1 [Example 3, 5-(3-cyclohexylmethoxymethyl-phenyl)-3H-[1,2,3]triazole-4-carbonitrile] | 260
N#Cc1[nH]nnc1-c1cc(Cl)ccc1-c1cccc(C(F)(F)F)c1 [Example 4, 5-(4-chloro-3′-trifluoromethyl-biphenyl-2-yl)-3H-[1,2,3]triazole-4-carbonitrile] | 240
N#Cc1[nH]nnc1-c1ccccc1Cc1cc(C(F)(F)F)cc(C(F)(F)F)c1 [Example 5, 5-[2-(3,5-bis-trifluoromethyl-benzyl)-phenyl]-3H-[1,2,3]triazole-4-carbonitrile] | 200
N#Cc1[nH]nnc1-c1cc(C(F)(F)F)ccc1/C=C/c1ccccc1 [Example 6, 5-[2-((E)-styryl)-5-trifluoromethyl-phenyl]-3H-[1,2,3]triazole-4-carbonitrile] | 400
N#Cc1[nH]nnc1-c1cc(C(F)(F)F)ccc1CCc1ccccc1 [Example 7, 5-(2-phenethyl-5-trifluoromethyl-phenyl)-3H-[1,2,3]triazole-4-carbonitrile] | 170
N#Cc1[nH]nnc1-c1cc(Cl)ccc1/C=C/c1cccc(C(F)(F)F)c1 [Example 8, 5-{5-chloro-2-[(E)-2-(3-trifluoromethyl-phenyl)-vinyl]-phenyl}-3H-[1,2,3]triazole-4-carbonitrile] | 290
Cc1cc(F)cc(-c2nn[nH]c2C#N)c1OCc1cc(F)cc(C(F)(F)F)c1 [Example 9, 5-[5-fluoro-2-(3-fluoro-5-trifluoromethyl-benzyloxy)-3-methyl-phenyl]-3H-[1,2,3]triazole-4-carbonitrile] | 230
N#Cc1[nH]nnc1-c1cc(-c2ccsc2)cc(C(F)(F)F)c1 [Example 10, 5-(3-(thiophen-3-yl)-5-trifluoromethyl-phenyl)-3H-[1,2,3]triazole-4-carbonitrile] | 70
N#Cc1[nH]nnc1-c1cc(-c2ccc(C(F)(F)F)nc2)cc(C2CC2)c1 [Example 12, 5-[3-cyclopropyl-5-(6-trifluoromethyl-pyridin-3-yl)-phenyl]-3H-[1,2,3]triazole-4-carbonitrile] | 690
CC(C)(C)c1cc(-c2ccc(C(F)(F)F)cn2)cc(-c2nn[nH]c2C#N)c1 [Example 13, 5-[3-tert-butyl-5-(5-trifluoromethyl-pyridin-2-yl)-phenyl]-3H-[1,2,3]triazole-4-carbonitrile] | 870
CCOc1ccc(-c2ccc(C(F)(F)F)nc2)cc1-c1nn[nH]c1C#N [Example 16, 5-[2-ethoxy-5-(6-trifluoromethyl-pyridin-3-yl)-phenyl]-3H-[1,2,3]triazole-4-carbonitrile] | 670
CC(C)Oc1ccc(-c2nn[nH]c2C#N)cc1-c1ccc(C(F)(F)F)nc1 [Example 17] | 520
N#Cc1[nH]nnc1-c1cc(OCC2CC2)cc(-c2ccc(C(F)(F)F)cn2)c1 [Example 18, 5-[3-cyclopropylmethoxy-5-(5-trifluoromethyl-pyridin-2-yl)-phenyl]-3H-[0,1,2,3]triazole-4-carbonitrile] | 570
N#Cc1[nH]nnc1-c1cc(OC2CCC2)cc(-c2ccc(C(F)(F)F)nc2)c1 [Example 19, 5-[3-cyclobutoxy-5-(6-trifluoromethyl-pyridin-3-yl)-phenyl]-3H-[1,2,3]triazole-4-carbonitrile] | 530
N#Cc1[nH]nnc1-c1cc(OCc2cccc(C(F)(F)F)c2)cc(-c2ccc(C(F)(F)F)cn2)c1 [Example 20, 5-[3-(3-trifluoromethyl-benzyloxy)-5-(5-trifluoromethyl-pyridin-2-yl)-phenyl]-3H-[1,2,3]triazole-4-carbonitrile] | 1620

Compound | EC50 [nM]
N#Cc1[nH]nnc1-c1cc(Cl)cc(N2CCC(C(F)(F)F)CC2)c1 [Example 24, 5-[3-chloro-5-(4-trifluoromethyl-piperidin-1-yl)-phenyl]-3H-[1,2,3]triazole-4-carbonitrile] | 480
N#Cc1[nH]nnc1-c1cc(Cl)cc(-c2csc3ccccc23)c1 [Example 25, 5-(3-(benzo[b]thiophen-3-yl)-5-chloro-phenyl)-3H-[1,2,3]triazole-4-carbonitrile] | 540
N#Cc1[nH]nnc1-c1ccc(F)c(-c2cc3ccccc3o2)c1 [Example 26, 5-(3-(benzofuran-2-yl)-4-fluoro-phenyl)-3H-[1,2,3]triazole-4-carbonitrile] | 690
N#Cc1[nH]nnc1-c1cccc(-c2nc3cc(F)ccc3o2)c1 [Example 27, 5-[3-(5-fluoro-benzoxazol-2-yl)-phenyl]-3H-[1,2,3]triazole-4-carbonitrile] | 890
N#Cc1[nH]nnc1-c1cc(F)cc(-c2cccc(C(F)(F)F)c2)c1 [Example 28, 5-(5-fluoro-3′-trifluoromethyl-biphenyl-3-yl)-3H-[1,2,3]triazole-4-carbonitrile] | 370
N#Cc1[nH]nnc1-c1cc(Cl)cc(-c2ccc3c(c2)OC(F)(F)O3)c1 [Example 30, 5-[3-chloro-5-(2,2-difluoro-benzo[1,3]dioxol-5-yl)-phenyl]-3H-[1,2,3]triazole-4-carbonitrile] | 640
Cc1cc(-c2cc(F)cc(C(F)(F)F)c2)cc(-c2nn[nH]c2C#N)c1 [Example 31, 5-(5′-fluoro-5-methyl-3′-trifluoromethyl-biphenyl-3-yl)-3H-[1,2,3]triazole-4-carbonitrile] | 380
COc1ccc(-c2nn[nH]c2C#N)cc1-c1ccc(F)c(F)c1 [Example 32, 5-(3′,4′-difluoro-6-methoxy-biphenyl-3-yl)-3H-[1,2,3]triazole-4-carbonitrile] | 740
CCOCc1cc(-c2ccc(F)cc2)cc(-c2nn[nH]c2C#N)c1 [Example 33, 5-(5-ethoxymethyl-4′-fluoro-biphenyl-3-yl)-3H-[1,2,3]triazole-4-carbonitrile] | 270
N#Cc1[nH]nnc1-c1cc(Cc2ccc(F)cc2)cc(OC(F)(F)F)c1 [Example 34, 5-[3-(4-fluoro-benzyl)-5-trifluoromethoxy-phenyl]-3H-[1,2,3]triazole-4-carbonitrile] | 460
N#Cc1[nH]nnc1-c1cc(Cl)cc(Cc2cc(C(F)(F)F)ccc2C(F)(F)F)c1 [Example 35, 5-[3-(2,5-bis-trifluoromethyl-benzyl)-5-chloro-phenyl]-3H-[1,2,3]triazole-4-carbonitrile] | 340
N#Cc1[nH]nnc1-c1cccc(CN2CCc3ccccc32)c1 [Example 36, 5-[3-(2,3-dihydro-indol-1-ylmethyl)-phenyl]-3H-[1,2,3]triazole-4-carbonitrile] | 450
N#Cc1[nH]nnc1-c1cc(Oc2ccccc2)cc(C(F)(F)F)c1 [Example 37, 5-(3-phenoxy-5-trifluoromethyl-phenyl)-3H-[1,2,3]triazole-4-carbonitrile] | 120
N#Cc1[nH]nnc1-c1cccc(Sc2ccc(Cl)cc2)c1 [Example 38, 5-[3-(4-chloro-phenylsulfanyl)-phenyl]-3H-[1,2,3]triazole-4-carbonitrile] | 420
N#Cc1[nH]nnc1-c1cc(CCc2cccc(C(F)(F)F)n2)cc(C(F)(F)F)c1 [Example 39, 5-{3-trifluoromethyl-5-[2-(6-trifluoromethyl-pyridin-2-yl)-ethyl]-phenyl}-3H-[1,2,3]triazole-4-carbonitrile] | 710
N#Cc1[nH]nnc1-c1cccc(CCc2ccc(F)cc2F)c1 [Example 40, 5-{3-[2-(2,4-difluoro-phenyl)-ethyl]-phenyl}-3H-[1,2,3]triazole-4-carbonitrile] | 550
N#Cc1[nH]nnc1-c1cccc(/C=C/c2cccc(C(F)(F)F)c2)c1Cl [Example 42, 5-{2-chloro-3-[(E)-2-(3-trifluoromethyl-phenyl)-vinyl]-phenyl}-3H-[1,2,3]triazole-4-carbonitrile] | 590
